Here are results for two molecules from paper PMC3479105, “K-134, a Phosphodiesterase 3 Inhibitor, Prevents Brain Damage by Inhibiting Thrombus Formation in a Rat Cerebral Infarction Model” (PLoS ONE, 2012).

One data set relates to bleeding time. Kind of data set: Tail bleeding time in mice. It is filed as in vivo, mouse. The note with it: single oral 30 mg/kg, 10 min before test, control 110±5 s, not significant. The procedure:
K-134 and warfarin (Sigma Aldrich Co., MO, USA) were suspended and dissolved in 1% HPMC, respectively, and orally administered to ICR mice at 10 min or 24 h before testing of bleeding, respectively. Each mouse was placed in a restrainer, which exposes the tail. A 27G disposable needle (Terumo Co., Tokyo, Japan) was inserted about 6 mm into a tail vein 2 cm from the tip of the tail. Immediately after the operation, sheets of filter paper were placed under the injury site every 15 sec to absorb the blood, and the time point at which no blood was observed on the filter paper was regarded as the bleeding time.

Data set [1] in a line: Plasma concentration of K-134 in mice. It is filed as in vivo, mouse. The note with it: male ICR mice, 10 min after administration, n = 6; for concentration at 10 min: mouse, plasma. The procedure: We also measured plasma concentration of K-134 at 10 min after a single oral administration of K-134 to male ICR mice (Japan SLC Inc., 5 weeks old).
In data set [2] the test system is platelet aggregation ex vivo. On the set-up: method as in PMID 22269153. The note with it: rats, single administration 30 mg/kg; cited from earlier work.
Details of data set [3]: method as in PMID 22269153. The conditions noted are these: cited from earlier work.
Data set [4] relates to platelet aggregation ex vivo. Kind of data set: Platelet aggregation ex vivo in rats after oral dosing. The conditions noted are these: Rattus norvegicus, 300 mg/kg oral, 3 h after administration. As for the experimental part: Cilostazol was orally administered to rats under non-fasting conditions in a single dose. […] Platelet-rich plasma (PRP) was prepared by centrifugation (450 × g, 8 min, 25°C) of blood. PRP was stimulated with adenosine diphosphate (ADP) (final concentration = 4 µM; MC Medical Inc., Tokyo, Japan) or collagen (final concentration = 5 µg/mL; MC Medical Inc.). Platelet aggregation was quantified by measuring the area under the curve (AUC) during the 5 or 7 min after addition of ADP or collagen, respectively, using a light transmittance aggregometer (Hema Tracer 313M; MC Medical Inc.).

The nature of data set [5]: Pharmacokinetics of cilostazol and its active metabolites in rats. The note with it: single oral cilostazol 300 mg/kg, non-fasting male SD rats, n = 3, parent and metabolites. It is filed as in vivo, rat. The procedure: Pharmacokinetic variables (Cmax, AUC, Tmax and T1/2) were calculated from the plasma drug concentration-time curve. Cilostazol was orally administered to rats under non-fasting conditions at a single dose of 300 mg/kg to determine the concentration-time profile in serum (n = 3). Values are means (± SEM). […]

On the set-up of data set [6]: method as in PMID 10702882. The conditions noted are these: human healthy male, single dose 100 mg of cilostazol, cited from earlier work.

Like-named read-outs stand apart in the source and are kept apart here.

`O=C(NCCCOc1ccc2[nH]c(=O)ccc2c1)N(C1CC1)[C@@H]1CCCC[C@H]1O` [K-134]: in the data set on bleeding time, the bleeding time is 106 ± 5 s. In data set [1] (30 mg/kg single oral, 30 mg/kg), the “Plasma concentration of K-134” value is 13600 ± 2300 nM. Moreover, the concentration at 10 min in data set [1] (1 mg/kg single oral) was determined as 400 nM; in data set [1] (3 mg/kg single oral) it was 1100 ± 200 nM; in data set [1] (10 mg/kg single oral), 4300 ± 600 nM; in data set [1] (30 mg/kg single oral) it was 13600 ± 2300 nM. For the same molecule, the “inhibition of ADP-induced platelet aggregation ex vivo” value in data set [2] was “about 55%”. Also, the “inhibition of collagen-induced platelet aggregation ex vivo” value in data set [2] was about 79%. Besides, in data set [3] (oral administration, conscious male SD rats under fed conditions), the “time to plasma peak levels” value is 1 to 2 h. The “half-life (T1/2)” value in data set [3] (rats, 10 mg/kg) was “about 2 h”.
A word on the inhibition: it is the share of the control response that was lost under treatment. What is called Tmax is the time from dosing to the highest level. What is called Cmax is the peak of the concentration-time curve. By half-life is commonly meant the time in which the quantity being followed falls by half. In the case of `O=C1CCc2cc(OCCCCc3nnnn3C3CCCCC3)ccc2N1` [cilostazol], the inhibition at 300 mg/kg worked out at 27% in data set [4] (read-out: inhibition of ADP-induced platelet aggregation ex vivo) and 50% in data set [4] (read-out: inhibition of collagen-induced platelet aggregation ex vivo). Besides, the Tmax in data set [5] (male, SD, rat, plasma, po, 300 mg/kg, read-out: Tmax) is over 3 h; in data set [5], 5.8 h. Besides, the Cmax was 2400 nM in data set [5] (rat, plasma); 1690 nM in data set [6] (converted from µg/L, read-out: Cmax); “about 625 µg/L” in data set [6]. For the same molecule, in data set [5] (rat, plasma), the half-life was 5.4 h. Moreover, in data set [5] (rat, plasma, read-out: AUC0-24h), the AUC(0-t) was found to be 30.1 µM·h. For the same molecule, the “AUC0–72 h” value is 21.89 µM·h in data set [6] (converted from µg/L·h) and “about 8087 µg/L·h” in data set [6].
